The subject of one experiment is N. gonorrhoeae WHO Q. Nature of the experiment: Liquid broth MIC in Fastidious broth. Format: cell-based. To be noted: Neisseria gonorrhoeae, read-out: Minimum Inhibitory Concentration, N. gonorrhoeae WHO Q. The procedure, abridged: (§1)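 Broth microdilution in Fastidious broth with 2-fold compound series; inoculum from 24 h chocolate agar colonies, 5×10^5 CFU/mL start. Incubated ~24 hours at 36° C, 5% CO2. MIC read visually as lowest concentration giving <10% growth versus full-growth wells; strains carry mosaic PBP2.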

For another experiment, the system named is N. gonorrhoeae WHO Z. In words: Liquid broth MIC in Fastidious broth. It is filed as cell-based. The note with it: Neisseria gonorrhoeae, read-out: Minimum Inhibitory Concentration, N. gonorrhoeae WHO Z. The procedure, abridged: as §1
The next experiment deals with T1, P. aeruginosa PBP3 (Pseudomonas aeruginosa, UniProt G3XD46).
T1 construct: made in house
T1 sequence (G3XD46 whole entry): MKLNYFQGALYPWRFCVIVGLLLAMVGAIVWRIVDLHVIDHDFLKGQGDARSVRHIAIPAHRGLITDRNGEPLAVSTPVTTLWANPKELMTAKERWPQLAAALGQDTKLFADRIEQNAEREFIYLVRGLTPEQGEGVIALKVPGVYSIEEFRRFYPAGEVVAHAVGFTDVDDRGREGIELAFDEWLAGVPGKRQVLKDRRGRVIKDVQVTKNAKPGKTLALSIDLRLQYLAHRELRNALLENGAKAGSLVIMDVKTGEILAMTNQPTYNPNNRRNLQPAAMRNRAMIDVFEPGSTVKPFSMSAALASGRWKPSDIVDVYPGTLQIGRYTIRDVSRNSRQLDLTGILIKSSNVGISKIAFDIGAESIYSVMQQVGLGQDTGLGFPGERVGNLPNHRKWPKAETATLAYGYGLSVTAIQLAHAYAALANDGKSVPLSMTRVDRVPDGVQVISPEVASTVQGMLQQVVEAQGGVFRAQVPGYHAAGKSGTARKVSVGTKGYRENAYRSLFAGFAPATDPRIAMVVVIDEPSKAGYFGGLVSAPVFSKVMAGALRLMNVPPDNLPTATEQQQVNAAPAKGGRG
In words: Bocillin-FL fluorescence polarization competition binding assay, P. aeruginosa PBP3. To be noted: fluorescence polarization competition binding assay using Bocillin-FL. A digest of the protocol:
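Inhibitor competition with Bocillin-FL for P. aeruginosa PBP3 was followed by fluorescence polarization on a Cytation3 (BioTek) reader, using g-factor 0.96, 490 nm excitation and 520 nm emission. The enzyme was at 0.75 μM and the probe at 0.1 μM in Hepes/NaCl/glycerol buffer, 80 μl per well. FP was recorded immediately after probe addition for up to 60 minutes. Potency was expressed as EC50, the concentration that reduces bound probe by 50%.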
(Fluorescence polarisation rises when a labelled molecule tumbles more slowly, as on binding a larger partner.)

≈ marks a conversion by molar mass, not a printed value.

For the compound `CCN1CCN(C(=O)N[C@H](C(=O)N[C@H]2Cc3cccc(C(=O)O)c3OB2O)c2cc(O)cc(O)c2)C(=O)C1=O` (single isomer, unassigned) [Example 81], the MIC in the experiment with N. gonorrhoeae WHO Q and in the experiment with N. gonorrhoeae WHO Z was 16 to 32 µg/mL (≈ 29.6 to 59.2 µM) each time. For the same compound, the “P. aeruginosa PBP3 Potency” value at P. aeruginosa PBP3 is “B (B represents a potency between 30 μM and 500 μM inclusive)”.

In the case of `NCCN1CCN(C(=O)N[C@H](C(=O)N[C@H]2Cc3cccc(C(=O)O)c3OB2O)c2ccc(O)cc2F)C(=O)C1=O` (single isomer, unassigned) [Example 88], the MIC in the experiment on N. gonorrhoeae WHO Q and with N. gonorrhoeae WHO Z was over 64 µg/mL throughout. The “P. aeruginosa PBP3 Potency” value at P. aeruginosa PBP3 is “C (C represents a potency between 10 and 30 μM)”.

For the compound `NCCN1CCN(C(=O)N[C@@H](C(=O)N[C@H]2Cc3cccc(C(=O)O)c3OB2O)c2ccc(O)cc2F)C(=O)C1=O` (single isomer, unassigned) [Example 89], the MIC in the experiment on N. gonorrhoeae WHO Q and in the experiment with N. gonorrhoeae WHO Z was over 64 µg/mL in each case. Further, the “P. aeruginosa PBP3 Potency” value on P. aeruginosa PBP3 is on record as “D (D represents a potency <10 μM)”.

Turning to `NC(=O)c1ccc(C(NC(=O)N2CCN(CCF)C(=O)C2=O)C(=O)N[C@H]2Cc3cccc(C(=O)O)c3OB2O)cc1O` (stereo partly drawn) [Example 46, (3R)-3-(2-(4-carbamoyl-3-hydroxyphenyl)-2-(4-(2-fluoroethyl)-2,3-dioxopiperazine-1-carboxamido)acetamido)-2-hydroxy-3,4-dihydro-2H-benzo[e][1,2]oxaborinine-8-carboxylic acid], the MIC in the experiment with N. gonorrhoeae WHO Q and with N. gonorrhoeae WHO Z was 16 to 32 µg/mL (≈ 27.3 to 54.7 µM) each time. For the same compound, the “P. aeruginosa PBP3 Potency” value on P. aeruginosa PBP3 is recorded as “D (D represents a potency <10 μM)”.

In the case of `NCCCN1CCN(C(=O)NC(C(=O)N[C@H]2Cc3cccc(C(=O)O)c3OB2O)c2ccc(C(N)=O)c(O)c2)C(=O)C1=O` (stereo partly drawn) [Example 47, (3R)-3-(2-(4-(3-aminopropyl)-2,3-dioxopiperazine-1-carboxamido)-2-(4-carbamoyl-3-hydroxyphenyl)acetamido)-2-hydroxy-3,4-dihydro-2H-benzo[e][1,2]oxaborinine-8-carboxylic acid], the MIC in the experiment on N. gonorrhoeae WHO Q and in the experiment with N. gonorrhoeae WHO Z was over 64 µg/mL each time. In addition, the “P. aeruginosa PBP3 Potency” value on P. aeruginosa PBP3 was “D (D represents a potency <10 μM)”.

Regarding `CCN1CCN(C(=O)NC(C(=O)N[C@H]2Cc3cccc(C(=O)O)c3OB2O)c2ccc(C(=O)O)c(OC)c2)C(=O)C1=O` (stereo partly drawn) [Example 48, (3R)-3-(2-(4-carboxy-3-methoxyphenyl)-2-(4-ethyl-2,3-dioxopiperazine-1-carboxamido)acetamido)-2-hydroxy-3,4-dihydro-2H-benzo[e][1,2]oxaborinine-8-carboxylic acid], the MIC in the experiment on N. gonorrhoeae WHO Q was 4 to 8 µg/mL (≈ 6.87 to 13.7 µM); in the experiment with N. gonorrhoeae WHO Z, 1 to 2 µg/mL (≈ 1.72 to 3.43 µM). Also, the “P. aeruginosa PBP3 Potency” value at P. aeruginosa PBP3 is “D (D represents a potency <10 μM)”.

In the case of `O=C(NC(C(=O)N[C@H]1Cc2ccc(F)c(C(=O)O)c2OB1O)c1ncc(O)cc1F)c1ccnc(F)c1` (stereo partly drawn) [Example 53, (3R)-7-fluoro-3-(2-(3-fluoro-5-hydroxypyridin-2-yl)-2-(2-fluoroisonicotinamido)acetamido)-2-hydroxy-3,4-dihydro-2H-benzo[e][1,2]oxaborinine-8-carboxylic acid], the MIC with N. gonorrhoeae WHO Q and with N. gonorrhoeae WHO Z was over 64 µg/mL throughout. The “P. aeruginosa PBP3 Potency” value at P. aeruginosa PBP3 was “D (D represents a potency <10 μM)”.

Regarding `CCN1CCN(C(=O)NC(C(=O)N[C@H]2Cc3ccc(C=O)c(C(=O)O)c3OB2O)c2csc(N)n2)C(=O)C1=O` (stereo partly drawn) [Example 57, (3R)-3-(2-(2-aminothiazol-4-yl)-2-(4-ethyl-2,3-dioxopiperazine-1-carboxamido)acetamido)-7-formyl-2-hydroxy-3,4-dihydro-2H-benzo[e][1,2]oxaborinine-8-carboxylic acid], the MIC in the experiment on N. gonorrhoeae WHO Q and in the experiment with N. gonorrhoeae WHO Z was over 64 µg/mL in each case. Also, the “P. aeruginosa PBP3 Potency” value on P. aeruginosa PBP3 was “C (C represents a potency between 10 and 30 μM)”.

(Values after patent publication US20230114728A1 (Venatorx Pharmaceuticals, Inc., priority 2019, published 2023).)
